Experimental findings from patent US20210154280A1, “NEO-EPITOPE VACCINES AND METHODS OF TREATING CANCER” (Epivax Oncology, Inc., priority 2019, published 2021) are described below.

Assay [1] concerns CT26 murine colon tumor cells. The assay can be described thus: Anti-tumor activity with or without poly-ICLC, CT26 murine tumor model (Example 13). Particulars: day 25 post-tumor implantation; relative to PBS or poly-ICLC alone; sc twice per week for three weeks. In kind it is in vivo, BALB/c mice. How it is done:
The goal of this experiment was to determine the requirement for the inclusion of the adjuvant poly-ICLC in a peptide vaccine containing ANCER™ selected neoantigens. For this experiment, female BALB/c mice were implanted subcutaneously with 3×10^5 CT26 murine colon tumor cells. Tumor growth was monitored by caliper measurement and mice were sacrificed 45 days after tumor implantation or when tumor volumes reached 2000 mm^3, whichever came first.
Four vaccine groups were tested (n=10 mice/group): • Group 1=PBS only • Group 2=PBS with 50 μg poly-ICLC • Group 3=20 ANCER™ selected (uncapped) peptides with 50 μg poly-ICLC • Group 4=20 ANCER™ selected (uncapped) peptides only
Peptide vaccines were comprised of 20 different ANCER™ selected peptides at a concentration of 5 μg/peptide for a total dose of 100 μg peptide per immunization. Mice were immunized subcutaneously in the opposite flank from tumor implantation twice per week for three weeks, starting at day 4 post-tumor implantation.

For another assay, the system named is CT26 tumor cells. The assay can be described thus: CT26 tumor growth and survival after vaccination (Example 1). Particulars: N=10 per group.

Protocol for CT26 tumor cells: Mice were separated into three groups: 1) PBS control; 2) poly-ICLC (vehicle); 3) ANCER™-selected CT26 Neoantigen Peptides+poly-ICLC. • Group 1: PBS, sc injections at days 5, 8, 12, 15, 19, 22, and 26. • Group 2: poly-ICLC, 50 μg, sc injections at days 5, 8, 12, 15, 19, 22, and 26. • Group 3: 5 μg/ANCER™-selected CT26 Neoantigen Peptide (100 μg total ANCER™-selected CT26 Neoantigen Peptides)+50 μg poly-ICLC, sc injections at days 5, 8, 12, 15, 19, 22, and 26.
All mice (N=10 mice per group) were injected 3*10^5 CT26 tumor cells in 0% Matrigel at day 0. Mice were sacrificed once the tumor volume reached 2,000 mm^3 or at day 45, whichever came first.

On to poly-ICLC, for which the “control of tumor growth” value in assay [1] is on record as “no difference in tumor growth kinetics”. The “mice that survived the 45 days of the experiment (in words)” value in the assay on CT26 tumor cells is listed as “None”. For the same substance, the “mice reaching a tumor volume of at least 2,000 mm^3 (endpoint)” value in the assay with CT26 tumor cells (by day 28) came out at 60%.
